Experimental data published in ChEMBL document CHEMBL1201862, “PubChem BioAssay data set” (2004).
Activity calls are given as the source filed them. For most assays here, no stated cut-off is given here; in the data, actives have a measured IC50 and inactives only a lower limit.

Assays:
[1] = biological target: T1, Tyrosine-protein phosphatase non-receptor type 22 (Homo sapiens, UniProt Q9Y2R2); format: functional
T1 sequence (Q9Y2R2 whole entry): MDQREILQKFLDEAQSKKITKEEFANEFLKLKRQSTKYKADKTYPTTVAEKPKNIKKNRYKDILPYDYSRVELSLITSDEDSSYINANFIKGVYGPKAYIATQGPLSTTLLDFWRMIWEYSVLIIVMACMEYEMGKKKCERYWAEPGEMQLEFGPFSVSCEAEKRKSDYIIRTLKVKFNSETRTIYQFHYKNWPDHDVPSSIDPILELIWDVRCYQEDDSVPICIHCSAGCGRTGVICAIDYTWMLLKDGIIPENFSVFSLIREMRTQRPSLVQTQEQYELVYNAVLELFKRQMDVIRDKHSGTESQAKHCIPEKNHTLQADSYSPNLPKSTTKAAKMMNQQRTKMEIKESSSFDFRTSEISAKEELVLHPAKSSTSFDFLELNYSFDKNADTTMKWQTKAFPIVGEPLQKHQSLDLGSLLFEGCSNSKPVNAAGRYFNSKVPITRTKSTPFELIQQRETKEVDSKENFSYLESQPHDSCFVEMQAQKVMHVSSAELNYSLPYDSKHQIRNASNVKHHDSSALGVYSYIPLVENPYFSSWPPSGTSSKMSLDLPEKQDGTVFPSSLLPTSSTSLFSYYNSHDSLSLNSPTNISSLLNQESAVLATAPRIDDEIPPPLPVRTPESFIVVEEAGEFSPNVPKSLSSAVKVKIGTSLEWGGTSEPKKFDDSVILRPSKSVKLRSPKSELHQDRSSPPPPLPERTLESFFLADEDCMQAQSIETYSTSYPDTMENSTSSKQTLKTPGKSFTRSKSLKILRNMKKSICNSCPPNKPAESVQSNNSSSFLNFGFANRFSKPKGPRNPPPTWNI

[2] = biological target: T1, Tyrosine-protein phosphatase non-receptor type 22; format: functional; remark: listed apart in the source
[3] = biological target: T2, Tyrosine-protein phosphatase non-receptor type 7 (Homo sapiens, UniProt P35236); format: functional
T2 sequence (P35236 whole entry): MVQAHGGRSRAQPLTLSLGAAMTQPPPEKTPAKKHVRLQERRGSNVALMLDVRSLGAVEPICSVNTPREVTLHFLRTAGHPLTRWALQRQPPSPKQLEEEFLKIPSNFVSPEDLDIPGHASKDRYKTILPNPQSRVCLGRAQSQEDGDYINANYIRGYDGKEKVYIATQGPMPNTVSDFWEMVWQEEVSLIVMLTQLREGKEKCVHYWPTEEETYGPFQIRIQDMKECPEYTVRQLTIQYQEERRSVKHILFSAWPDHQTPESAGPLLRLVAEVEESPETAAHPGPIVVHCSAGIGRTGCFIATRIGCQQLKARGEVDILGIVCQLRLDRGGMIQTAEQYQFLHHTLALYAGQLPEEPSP

[4] = biological target: T3, Ubiquitin-conjugating enzyme E2 N (Homo sapiens, UniProt P61088); format: functional
T3 sequence (P61088 whole entry): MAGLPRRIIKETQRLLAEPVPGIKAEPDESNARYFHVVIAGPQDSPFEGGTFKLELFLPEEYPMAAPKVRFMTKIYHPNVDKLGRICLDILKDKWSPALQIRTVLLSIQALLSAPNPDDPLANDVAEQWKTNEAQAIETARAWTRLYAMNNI

[5] = biological target: T4, Corticotropin-releasing factor receptor 2/Corticotropin-releasing factor-binding protein (Homo sapiens, UniProt P24387+Q13324); test: activators of CRF receptor 2 with binding protein – uHTS hits, confirmation (AID 602473); format: functional; details: read-out: EC50_Mean
T4 sequence (Q13324 whole entry): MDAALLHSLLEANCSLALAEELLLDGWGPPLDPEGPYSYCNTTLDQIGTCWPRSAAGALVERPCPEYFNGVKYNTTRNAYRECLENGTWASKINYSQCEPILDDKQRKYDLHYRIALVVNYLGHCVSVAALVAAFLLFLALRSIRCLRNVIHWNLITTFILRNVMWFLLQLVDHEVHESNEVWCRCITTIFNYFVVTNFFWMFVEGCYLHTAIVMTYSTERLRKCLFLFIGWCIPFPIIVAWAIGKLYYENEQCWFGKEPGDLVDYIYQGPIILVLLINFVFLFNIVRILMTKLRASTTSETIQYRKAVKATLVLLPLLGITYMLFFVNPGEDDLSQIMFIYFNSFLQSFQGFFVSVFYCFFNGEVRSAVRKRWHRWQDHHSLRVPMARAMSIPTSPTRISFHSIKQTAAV
T4 sequence (P24387 whole entry): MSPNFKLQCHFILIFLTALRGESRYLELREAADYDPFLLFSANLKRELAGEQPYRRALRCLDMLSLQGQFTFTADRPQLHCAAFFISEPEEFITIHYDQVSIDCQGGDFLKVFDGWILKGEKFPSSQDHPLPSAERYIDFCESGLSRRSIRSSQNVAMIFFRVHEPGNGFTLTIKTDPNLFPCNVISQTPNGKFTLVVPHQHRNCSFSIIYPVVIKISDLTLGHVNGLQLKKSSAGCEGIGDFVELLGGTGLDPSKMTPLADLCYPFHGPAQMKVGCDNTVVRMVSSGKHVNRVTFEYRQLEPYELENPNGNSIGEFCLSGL

[6] = biological target: T4, Corticotropin-releasing factor receptor 2/Corticotropin-releasing factor-binding protein; test: Dose Response confirmation of uHTS hits for small molecule antagonists of the CRF-binding protein and CRF-R2 receptor complex.; format: functional; details: read-out: IC50_Mean
[7] = biological target: T3, Ubiquitin-conjugating enzyme E2 N; format: functional; remark: listed apart in the source
[8] = biological target: T5, Bcl-2-related protein A1 (Mus musculus, UniProt Q07440); format: functional;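 further: confirmatory dose–response counterscreen on Bfl-1, used to check hits from a UBC13 polyubiquitin inhibitor campaign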
T5 sequence (Q07440 whole entry): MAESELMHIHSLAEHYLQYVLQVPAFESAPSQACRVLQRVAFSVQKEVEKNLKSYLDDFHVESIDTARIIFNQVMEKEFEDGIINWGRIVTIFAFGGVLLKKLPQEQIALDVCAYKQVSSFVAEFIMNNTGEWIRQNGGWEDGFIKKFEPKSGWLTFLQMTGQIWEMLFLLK

[9] = cells; format: functional
[10] = THP-1 cell cytotoxicity, dose response, cytotoxicity control for non-replicating M. tuberculosis project (AID 489025); format: functional
[11] = biological target: T6, Microphthalmia-associated transcription factor (Homo sapiens, UniProt O75030); test: TRPM1 promoter luciferase signal decrease, dose response, MITF inhibitor project, cell-based, SK-MEL-5, cherry-picked, set 3 (AID 493073); format: functional
T6 sequence (O75030 whole entry): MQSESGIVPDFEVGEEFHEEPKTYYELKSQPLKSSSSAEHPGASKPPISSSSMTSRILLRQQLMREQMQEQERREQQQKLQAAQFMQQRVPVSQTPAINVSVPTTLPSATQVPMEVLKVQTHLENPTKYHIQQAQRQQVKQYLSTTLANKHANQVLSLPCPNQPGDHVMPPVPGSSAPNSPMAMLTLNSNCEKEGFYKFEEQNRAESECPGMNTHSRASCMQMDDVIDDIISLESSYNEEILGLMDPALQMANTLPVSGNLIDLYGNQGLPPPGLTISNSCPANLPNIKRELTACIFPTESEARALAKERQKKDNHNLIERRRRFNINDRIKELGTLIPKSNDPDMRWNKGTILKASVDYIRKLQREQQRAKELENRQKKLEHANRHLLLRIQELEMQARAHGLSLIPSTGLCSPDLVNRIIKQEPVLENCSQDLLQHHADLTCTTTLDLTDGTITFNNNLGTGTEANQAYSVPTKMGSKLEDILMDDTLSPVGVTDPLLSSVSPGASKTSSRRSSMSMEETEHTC

[12] = Vero E6 cell cytotoxicity, dose response, cytotoxicity control for non-replicating M. tuberculosis project, secondary assay (AID 492998); format: functional, VeroE6; details: Vero C1008
[13] = biological target: T7, Alkaline phosphatase, tissue-nonspecific isozyme (Homo sapiens, UniProt P05186); test: TNAP enzyme inhibition by screening hits, dose response, selectivity assay for mouse IAP inhibitor project, biochemical, human TNAP, uHTS hits (AID 488906); format: functional
T7 sequence (P05186 whole entry): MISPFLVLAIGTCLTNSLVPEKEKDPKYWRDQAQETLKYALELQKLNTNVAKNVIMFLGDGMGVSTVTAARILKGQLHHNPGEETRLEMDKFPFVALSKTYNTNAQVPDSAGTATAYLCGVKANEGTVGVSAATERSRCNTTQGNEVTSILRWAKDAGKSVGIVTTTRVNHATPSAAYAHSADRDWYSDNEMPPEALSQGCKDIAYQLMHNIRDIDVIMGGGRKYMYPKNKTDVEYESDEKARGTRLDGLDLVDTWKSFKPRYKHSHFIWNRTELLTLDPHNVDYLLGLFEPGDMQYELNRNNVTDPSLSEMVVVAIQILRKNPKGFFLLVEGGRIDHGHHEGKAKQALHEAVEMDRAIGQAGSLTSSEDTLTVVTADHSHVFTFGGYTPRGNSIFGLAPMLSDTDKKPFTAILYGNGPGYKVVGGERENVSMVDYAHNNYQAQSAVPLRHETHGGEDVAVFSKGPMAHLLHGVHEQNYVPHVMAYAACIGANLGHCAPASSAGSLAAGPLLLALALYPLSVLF

[14] = biological target: Intestinal-type alkaline phosphatase (Homo sapiens, UniProt P09923); test: inhibition of human intestinal alkaline phosphatase – biochemical, dose response (AID 488876); format: functional
Sequence of Intestinal-type alkaline phosphatase (Homo sapiens, UniProt P09923) (P09923 whole entry): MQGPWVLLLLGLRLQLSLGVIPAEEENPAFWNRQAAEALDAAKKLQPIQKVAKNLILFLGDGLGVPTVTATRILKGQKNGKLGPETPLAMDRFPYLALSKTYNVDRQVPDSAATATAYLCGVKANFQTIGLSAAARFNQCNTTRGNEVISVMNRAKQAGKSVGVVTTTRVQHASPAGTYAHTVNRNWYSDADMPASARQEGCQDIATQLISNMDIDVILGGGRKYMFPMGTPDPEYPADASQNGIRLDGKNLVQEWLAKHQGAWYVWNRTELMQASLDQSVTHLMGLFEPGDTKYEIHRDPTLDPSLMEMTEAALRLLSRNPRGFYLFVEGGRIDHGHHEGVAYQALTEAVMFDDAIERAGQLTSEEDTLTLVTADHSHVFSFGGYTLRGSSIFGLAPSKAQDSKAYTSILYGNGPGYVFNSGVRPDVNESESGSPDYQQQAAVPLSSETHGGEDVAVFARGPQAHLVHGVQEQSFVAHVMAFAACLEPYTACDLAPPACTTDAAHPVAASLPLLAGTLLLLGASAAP

[15] = biological target: Intestinal-type alkaline phosphatase (Mus musculus, UniProt P24822); test: PubChem AID 488785; format: functional
Sequence of Intestinal-type alkaline phosphatase (Mus musculus, UniProt P24822) (P24822 whole entry): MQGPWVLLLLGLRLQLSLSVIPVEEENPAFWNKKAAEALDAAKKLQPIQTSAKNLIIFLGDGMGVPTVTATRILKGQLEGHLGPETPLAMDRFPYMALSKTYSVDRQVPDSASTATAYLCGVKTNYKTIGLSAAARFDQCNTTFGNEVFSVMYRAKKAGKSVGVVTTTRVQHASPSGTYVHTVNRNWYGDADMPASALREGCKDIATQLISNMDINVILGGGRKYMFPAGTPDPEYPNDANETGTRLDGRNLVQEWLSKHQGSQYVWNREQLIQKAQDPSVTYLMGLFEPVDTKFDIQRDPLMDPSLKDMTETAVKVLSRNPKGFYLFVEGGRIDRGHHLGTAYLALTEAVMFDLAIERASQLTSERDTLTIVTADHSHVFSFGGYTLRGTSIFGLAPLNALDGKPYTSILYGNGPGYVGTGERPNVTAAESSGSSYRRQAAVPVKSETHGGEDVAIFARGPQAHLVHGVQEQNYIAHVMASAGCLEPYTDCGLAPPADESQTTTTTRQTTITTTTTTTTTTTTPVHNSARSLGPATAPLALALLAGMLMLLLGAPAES

[16] = biological target: T8, Heat shock factor protein 1 (Mus musculus, UniProt P38532); test: HSF1 potentiators in luciferase reporter cells, confirmation, cell-based, NIH3T3, luminescence, dose retest (AID 435004); format: functional;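 further: stress induced by proteasome inhibitor MG132 added 30 min after compound; luciferase reporter driven by HSF1 response element in NIH3T3 cells; actives raise luminescence as potentiators of the MG132 stress response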
T8 sequence (P38532 whole entry): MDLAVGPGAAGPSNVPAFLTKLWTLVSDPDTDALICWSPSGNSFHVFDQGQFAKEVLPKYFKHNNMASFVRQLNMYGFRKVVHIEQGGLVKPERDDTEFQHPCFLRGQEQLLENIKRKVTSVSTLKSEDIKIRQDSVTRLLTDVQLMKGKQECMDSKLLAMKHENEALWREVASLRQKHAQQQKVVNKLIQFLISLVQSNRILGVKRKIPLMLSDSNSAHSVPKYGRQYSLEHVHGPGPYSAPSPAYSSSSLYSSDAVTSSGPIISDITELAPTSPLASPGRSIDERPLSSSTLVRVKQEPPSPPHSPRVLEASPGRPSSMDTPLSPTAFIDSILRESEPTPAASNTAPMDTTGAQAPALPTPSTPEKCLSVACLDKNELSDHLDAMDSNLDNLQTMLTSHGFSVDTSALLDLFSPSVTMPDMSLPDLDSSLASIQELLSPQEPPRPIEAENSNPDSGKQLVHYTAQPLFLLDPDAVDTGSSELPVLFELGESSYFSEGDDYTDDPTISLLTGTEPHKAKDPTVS

## CCOC(=O)NC(=O)C(=CNc1ccc(C)cc1)C(=O)NC(=O)OCC
[1]
  IC50: > 79.4 µM (inactive)
[2]
  IC50: > 79.4 µM (inactive)
[3]
  IC50: > 79.4 µM (inactive)

## Cc1cc(NC(=O)Cn2c(=O)n(CCCCC(=O)NC3CCN(Cc4ccccc4)CC3)c(=O)c3ccccc32)[nH]n1
[4]
  IC50: > 20 µM (inactive)
[1]
  IC50: > 79.4 µM (inactive)
[2]
  IC50: > 79.4 µM (inactive)
[3]
  IC50: > 79.4 µM (inactive)

## O=[N+]([O-])c1cc(Br)cc(/C=N/n2cnnc2)c1O
[1]
  IC50: > 79.4 µM (inactive)
[2]
  IC50: > 79.4 µM (inactive)
[3]
  IC50: > 79.4 µM (inactive)

## CCOc1ccc(C(=O)Nc2ccc(Cl)cn2)cc1Cl
[5]
  EC50: > 53 µM (inactive)
[1]
  IC50: > 79.4 µM (inactive)
[2]
  IC50: > 79.4 µM (inactive)
[6]
  IC50: > 47.1 µM (inactive)
[3]
  IC50: > 79.4 µM (inactive)

## Cc1ccc(CN2CCC(CNC(=O)c3ccc(NC(=O)C4=CSCCO4)cc3)CC2)cc1
[7]
  IC50: > 20 µM (inactive)
[4]
  IC50: 19.4 µM (active)
[8]
  IC50: > 20 µM (inactive)

## O=C(CNC(=O)c1cccc(F)c1)N/N=C/c1ccc([N+](=O)[O-])s1
[9]
  IC50: 30.7 µM (active)
[10]
  CC50: 28 µM (active)
[11]
  AC50: 7.45 µM (active)
[12]
  CC50: > 20 µM (active)

## Cc1cc(F)ccc1S(=O)(=O)Nc1ccc(O)c(Sc2nnc[nH]2)c1
[13]
  IC50: 5.44 µM (active)
[14]
  IC50: 2.12 µM (active)
[15]
  IC50: 2.3 µM (active)

## Cc1ccc(-c2cc(C(F)F)nc(S(C)(=O)=O)n2)cc1
[9]
  IC50: 7.88 µM (active)
[10]
  CC50: 23.9 µM (active)
[12]
  CC50: > 20 µM (active)
[16]
  EC50: 13.1 µM (active)
